SMILES strings stand for the structures.

The target in assay [1] is T1, αLβ2/ICAM-1 (Homo sapiens, UniProt P05107+P20701).
T1 construct: The Jurkat (VCAM-1 assays) and HSB (ICAM-1 assays) cell lines were obtained from American Type Culture Collection; endogenous in cells; host or cells: HSB (ATCC)
The experiment in a line: Static cell adhesion assay, HSB cells on ICAM-1 (LFA-1; LAD). The assay is classed as cell-based. Particulars: RFU of compound / RFU of THI0349, both at the same concentration. The method, boiled down: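 HSB cells were labeled with calcein-AM for 30 minutes, washed, resuspended in binding buffer (PBS with 2 mM MgCl2, 5 mM EGTA, 50% FBS) and plated at 2×10^5 cells/well in triplicate onto 96-well plates coated overnight at 4° C with ICAM-1 (5 μg/mL in 50 μL TBS) and blocked with 2% BSA. Compounds were tested in 1% DMSO. After 30 minutes at 37° C and three washes, adherent cells were lysed and fluorescence was read; results are compound RFU divided by THI0349 RFU.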

For assay [2], the target named is T2, α4β1/VCAM-1 (Homo sapiens, UniProt P05556+P13612).
T2 construct: The Jurkat (VCAM-1 assays) and HSB (ICAM-1 assays) cell lines were obtained from American Type Culture Collection; endogenous in cells; host or cells: Jurkat (ATCC)
T2 sequence (P13612 34-1032): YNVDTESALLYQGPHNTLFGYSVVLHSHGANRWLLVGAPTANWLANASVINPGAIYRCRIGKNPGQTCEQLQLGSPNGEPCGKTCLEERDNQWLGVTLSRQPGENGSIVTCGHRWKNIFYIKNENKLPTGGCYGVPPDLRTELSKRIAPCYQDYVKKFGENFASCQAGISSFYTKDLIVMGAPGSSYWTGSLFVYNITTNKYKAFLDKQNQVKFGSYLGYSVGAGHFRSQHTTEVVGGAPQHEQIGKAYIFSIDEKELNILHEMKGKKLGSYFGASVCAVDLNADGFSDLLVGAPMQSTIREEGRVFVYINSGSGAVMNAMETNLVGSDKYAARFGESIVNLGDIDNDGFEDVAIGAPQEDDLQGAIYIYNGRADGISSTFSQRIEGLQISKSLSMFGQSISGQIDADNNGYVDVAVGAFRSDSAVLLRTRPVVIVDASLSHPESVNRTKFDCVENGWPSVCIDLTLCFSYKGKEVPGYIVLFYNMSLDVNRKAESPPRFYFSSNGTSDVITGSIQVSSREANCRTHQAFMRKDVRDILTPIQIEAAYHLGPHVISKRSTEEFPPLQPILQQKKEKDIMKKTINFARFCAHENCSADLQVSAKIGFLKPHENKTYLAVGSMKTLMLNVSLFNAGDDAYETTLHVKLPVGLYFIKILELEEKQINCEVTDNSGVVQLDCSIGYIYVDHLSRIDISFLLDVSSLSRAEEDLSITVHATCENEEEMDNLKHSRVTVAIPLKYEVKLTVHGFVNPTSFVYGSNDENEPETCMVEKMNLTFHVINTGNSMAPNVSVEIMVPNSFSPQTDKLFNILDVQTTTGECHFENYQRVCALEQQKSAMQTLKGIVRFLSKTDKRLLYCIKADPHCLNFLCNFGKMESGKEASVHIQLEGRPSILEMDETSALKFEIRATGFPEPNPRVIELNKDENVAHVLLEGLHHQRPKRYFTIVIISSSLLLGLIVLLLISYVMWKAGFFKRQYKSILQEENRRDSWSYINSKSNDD
T2 sequence (P05556 21-798): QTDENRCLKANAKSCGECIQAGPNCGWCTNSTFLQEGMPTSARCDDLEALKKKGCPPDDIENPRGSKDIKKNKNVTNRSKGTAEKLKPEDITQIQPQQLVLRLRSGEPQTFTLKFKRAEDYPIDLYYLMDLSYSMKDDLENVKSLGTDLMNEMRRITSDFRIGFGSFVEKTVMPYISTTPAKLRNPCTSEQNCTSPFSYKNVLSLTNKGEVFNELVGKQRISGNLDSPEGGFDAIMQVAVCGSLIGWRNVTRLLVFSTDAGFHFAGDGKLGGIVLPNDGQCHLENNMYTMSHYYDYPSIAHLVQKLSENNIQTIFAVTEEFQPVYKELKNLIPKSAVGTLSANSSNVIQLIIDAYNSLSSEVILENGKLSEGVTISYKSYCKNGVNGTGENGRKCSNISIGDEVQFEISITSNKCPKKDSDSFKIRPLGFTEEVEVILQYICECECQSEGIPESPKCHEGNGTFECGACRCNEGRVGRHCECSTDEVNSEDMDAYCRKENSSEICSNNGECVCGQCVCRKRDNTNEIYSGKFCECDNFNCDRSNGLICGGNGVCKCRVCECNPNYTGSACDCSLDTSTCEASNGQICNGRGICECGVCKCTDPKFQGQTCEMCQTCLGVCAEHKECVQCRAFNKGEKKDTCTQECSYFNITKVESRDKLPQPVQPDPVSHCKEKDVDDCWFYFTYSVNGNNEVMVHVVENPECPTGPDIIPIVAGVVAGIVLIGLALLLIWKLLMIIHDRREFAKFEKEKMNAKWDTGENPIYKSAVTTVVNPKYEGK
Put plainly: Static cell adhesion assay, Jurkat cells on VCAM-1 (VLA-4 agonist activity). The assay is classed as cell-based. To be noted: EC50 relative to THI0349 (average 11 uM) run on the same plate; Jurkat cells, 50% FBS. In a few lines:
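Calcein-labelled Jurkat cells (2×10^5/well) were added to wells coated with a sub-optimal level of human VCAM-1 (0.5 μg/mL) in PBS, 1 mM MgCl2, 50% FBS with compound in 1% DMSO. After 30 min at 37° C. and washing, adherent-cell fluorescence was read. EC50 was the concentration giving 50% of maximal response.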

T1 sequence (P20701 26-1170): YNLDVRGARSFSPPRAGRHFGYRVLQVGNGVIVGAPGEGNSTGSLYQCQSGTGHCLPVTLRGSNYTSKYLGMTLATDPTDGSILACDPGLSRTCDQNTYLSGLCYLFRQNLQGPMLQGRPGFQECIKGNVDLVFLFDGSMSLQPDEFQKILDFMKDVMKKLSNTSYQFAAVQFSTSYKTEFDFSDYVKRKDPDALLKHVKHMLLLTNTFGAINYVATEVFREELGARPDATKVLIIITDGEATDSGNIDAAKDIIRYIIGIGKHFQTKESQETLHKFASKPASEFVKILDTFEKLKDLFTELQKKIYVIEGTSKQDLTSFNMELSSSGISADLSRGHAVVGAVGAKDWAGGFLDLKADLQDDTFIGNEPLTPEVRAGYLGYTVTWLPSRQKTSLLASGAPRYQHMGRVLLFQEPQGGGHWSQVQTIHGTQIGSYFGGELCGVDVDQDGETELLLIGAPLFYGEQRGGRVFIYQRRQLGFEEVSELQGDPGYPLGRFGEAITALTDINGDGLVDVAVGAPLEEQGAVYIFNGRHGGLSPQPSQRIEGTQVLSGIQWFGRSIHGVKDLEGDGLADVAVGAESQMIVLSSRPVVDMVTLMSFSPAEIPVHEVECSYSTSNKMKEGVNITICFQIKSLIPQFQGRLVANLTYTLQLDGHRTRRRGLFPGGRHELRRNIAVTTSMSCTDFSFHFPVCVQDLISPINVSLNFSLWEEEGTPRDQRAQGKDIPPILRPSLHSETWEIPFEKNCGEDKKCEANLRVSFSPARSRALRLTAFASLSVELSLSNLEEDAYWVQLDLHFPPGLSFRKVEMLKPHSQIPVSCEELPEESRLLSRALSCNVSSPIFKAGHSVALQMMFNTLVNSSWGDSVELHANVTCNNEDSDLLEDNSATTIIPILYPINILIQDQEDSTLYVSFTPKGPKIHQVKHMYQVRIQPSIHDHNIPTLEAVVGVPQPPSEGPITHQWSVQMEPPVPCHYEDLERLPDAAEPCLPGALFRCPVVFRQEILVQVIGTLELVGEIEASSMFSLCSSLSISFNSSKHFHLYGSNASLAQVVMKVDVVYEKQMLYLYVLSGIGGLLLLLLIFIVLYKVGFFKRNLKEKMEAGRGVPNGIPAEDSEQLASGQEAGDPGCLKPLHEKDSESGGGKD
T1 sequence (P05107 23-769): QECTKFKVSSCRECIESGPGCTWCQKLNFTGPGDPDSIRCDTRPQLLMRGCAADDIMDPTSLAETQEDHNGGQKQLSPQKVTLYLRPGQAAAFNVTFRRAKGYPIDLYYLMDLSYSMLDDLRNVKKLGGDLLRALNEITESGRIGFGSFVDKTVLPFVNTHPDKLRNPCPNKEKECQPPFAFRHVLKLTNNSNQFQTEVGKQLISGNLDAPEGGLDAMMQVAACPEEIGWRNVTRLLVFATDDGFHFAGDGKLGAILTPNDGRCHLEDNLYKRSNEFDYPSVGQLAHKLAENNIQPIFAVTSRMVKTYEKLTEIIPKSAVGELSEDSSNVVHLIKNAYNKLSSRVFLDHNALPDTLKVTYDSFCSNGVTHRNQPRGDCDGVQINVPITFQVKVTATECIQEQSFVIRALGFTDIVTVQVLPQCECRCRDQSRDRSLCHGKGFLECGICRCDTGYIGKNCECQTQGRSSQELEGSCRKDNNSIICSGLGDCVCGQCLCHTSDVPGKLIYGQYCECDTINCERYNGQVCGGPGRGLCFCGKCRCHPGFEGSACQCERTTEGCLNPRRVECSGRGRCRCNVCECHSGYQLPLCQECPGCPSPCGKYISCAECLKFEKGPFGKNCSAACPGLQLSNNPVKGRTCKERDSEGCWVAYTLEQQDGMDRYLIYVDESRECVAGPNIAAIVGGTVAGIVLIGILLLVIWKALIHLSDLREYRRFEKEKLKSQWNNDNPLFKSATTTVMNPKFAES

Turning to `COc1cccc(COCc2csc(N(C)Cc3cccc(OC)c3)n2)c1` [Compound 112, N-(3-methoxybenzyl)-4-((3-methoxybenzyloxy)methyl)-N-methylthiazol-2-amine], the “LAD Raw Fluorescence Units against LFA-1; Dose 3 µM; Ratio of raw counts Compound/THI0349” value in assay [1] is 0.04. In addition, in assay [2], the “Group against VCAM” value is on record as “III (Group III more than five times the EC50 of THI0349)”.

In the case of `COc1ccc(CCOCc2csc(N(Cc3cccc(OC)c3)Cc3cccc(OC)c3)n2)cc1` [Compound 40, N,N-bis(3-methoxybenzyl)-4-((4-methoxyphenethoxy)methyl)thiazol-2-amine], the “LAD Raw Fluorescence Units against LFA-1; Dose 3 µM; Ratio of raw counts Compound/THI0349” value in assay [1] came out at 0.4. Also, in assay [2], the “Group against VCAM” value is “III (Group III more than five times the EC50 of THI0349)”.

On to `COc1cccc(CN(Cc2cccc(OC)c2)c2nc(COCCOCCN3CCCCC3)cs2)c1` [Compound 62, N,N-bis(3-methoxybenzyl)-4-((2-(2-(piperidin-1-yl)ethoxy)ethoxy)methyl)thiazol-2-amine], for which the “LAD Raw Fluorescence Units against LFA-1; Dose 3 µM; Ratio of raw counts Compound/THI0349” value in assay [1] amounted to 0.37. Besides, the “Group against VCAM” value in assay [2] is listed as “I (Group I maintains at least the same potency or better up to more than twice that of the EC50 of THI0349 ran on the same plate)”.

In the case of `COc1cccc(CN(Cc2cccc(OC)c2)c2nc(COCCOCc3ccccc3C)cs2)c1` [Compound 60, N,N-bis(3-methoxybenzyl)-4-((2-((2-methylbenzyl)oxy)ethoxy)methyl)thiazol-2-amine], the “LAD Raw Fluorescence Units against LFA-1; Dose 3 µM; Ratio of raw counts Compound/THI0349” value in assay [1] was determined as 0.92. In addition, the “Group against VCAM” value in assay [2] is on record as “I (Group I maintains at least the same potency or better up to more than twice that of the EC50 of THI0349 ran on the same plate)”.

Consider `COc1cccc(CN(Cc2cccc(OC)c2)c2nc(COCCOCCOCc3ccccc3Cl)cs2)c1` [Compound 56, 4-((2-(2-((2-chlorobenzyl)oxy)ethoxy)ethoxy)methyl)-N,N-bis(3-methoxybenzyl)thiazol-2-amine], for which, in assay [1], the “LAD Raw Fluorescence Units against LFA-1; Dose 3 µM; Ratio of raw counts Compound/THI0349” value came to 1.2. For the same compound, the “Group against VCAM” value in assay [2] is “III (Group III more than five times the EC50 of THI0349)”.

In the case of `CCOC(=O)c1csc(N(C)Cc2cccc(OC)c2)n1` [Compound 106, ethyl 2-((3-methoxybenzyl)(methyl)amino)thiazole-4-carboxylate], the “LAD Raw Fluorescence Units against LFA-1; Dose 3 µM; Ratio of raw counts Compound/THI0349” value in assay [1] is on record as 0.05. Besides, the “Group against VCAM” value in assay [2] is “III (Group III more than five times the EC50 of THI0349)”.

As for `CCOC(=O)c1csc(N(Cc2cccc(OC)c2)Cc2cccc(-n3ccnc3)c2)n1` [Compound 118, ethyl 2-((3-(1H-imidazol-1-yl)benzyl)(3-methoxybenzyl)amino)thiazole-4-carboxylate], the “LAD Raw Fluorescence Units against LFA-1; Dose 3 µM; Ratio of raw counts Compound/THI0349” value in assay [1] came to 0.15. In addition, in assay [2], the “Group against VCAM” value is listed as “II (Group II is more than twice that of THI0349 but less than five times THI0349's EC50)”.

Regarding `COc1cccc(COCc2ccc(N(Cc3cccc(OC)c3)Cc3cccc(OC)c3)cc2)c1` [Compound 89, N,N-bis(3-methoxybenzyl)-4-((3-methoxybenzyloxy)methyl)aniline], in assay [1], the “LAD Raw Fluorescence Units against LFA-1; Dose 3 µM; Ratio of raw counts Compound/THI0349” value amounted to 0.34. In assay [2], the “Group against VCAM” value is reported as “III (Group III more than five times the EC50 of THI0349)”.

In the case of `OCc1coc(N(Cc2cccs2)Cc2cccs2)n1` [Compound 25, (2-(bis(thiophen-2-ylmethyl)amino)oxazol-4-yl)methanol], the “LAD Raw Fluorescence Units against LFA-1; Dose 3 µM; Ratio of raw counts Compound/THI0349” value in assay [1] turned out to be 0.74. Further, the “Group against VCAM” value in assay [2] is given as “II (Group II is more than twice that of THI0349 but less than five times THI0349's EC50)”.

With `COc1cccc(CN(Cc2cccc(OC)c2)c2nc(COCCOc3cccc(C#N)c3)cs2)c1` [Compound 50, 3-(2-((2-(bis(3-methoxybenzyl)amino)thiazol-4-yl)methoxy)ethoxy)benzonitrile], the “LAD Raw Fluorescence Units against LFA-1; Dose 3 µM; Ratio of raw counts Compound/THI0349” value in assay [1] was found to be 1.2. Further, the “Group against VCAM” value in assay [2] is recorded as “III (Group III more than five times the EC50 of THI0349)”.

As to `COc1cccc(CN(Cc2cccc(OC)c2)c2nc(CN3CCCCC3)cs2)c1` [Compound 68, N,N-bis(3-methoxybenzyl)-4-(piperidin-1-ylmethyl)thiazol-2-amine], the “LAD Raw Fluorescence Units against LFA-1; Dose 3 µM; Ratio of raw counts Compound/THI0349” value in assay [1] was found to be 1.6. Also, the “Group against VCAM” value in assay [2] is reported as “II (Group II is more than twice that of THI0349 but less than five times THI0349's EC50)”.

Take `COc1cccc(CN(Cc2cccc(OC)c2)c2nc(COCCN3CCc4ccccc43)cs2)c1` [Compound 88, 4-((2-(indolin-1-yl)ethoxy)methyl)-N,N-bis(3-methoxybenzyl)thiazol-2-amine]: the “LAD Raw Fluorescence Units against LFA-1; Dose 3 µM; Ratio of raw counts Compound/THI0349” value in assay [1] is listed as 0.18. Further, the “Group against VCAM” value in assay [2] is “II (Group II is more than twice that of THI0349 but less than five times THI0349's EC50)”.

`COc1cccc(CN(Cc2cccc(OC)c2)c2nc3c(s2)CN(C(=O)OC(C)(C)C)CC3)c1` [Compound 70, tert-butyl 2-(bis(3-methoxybenzyl)amino)-6,7-dihydrothiazolo[5,4-c]pyridine-5(4H)-carboxylate]: the “LAD Raw Fluorescence Units against LFA-1; Dose 3 µM; Ratio of raw counts Compound/THI0349” value in assay [1] is given as 0.14. In addition, the “Group against VCAM” value in assay [2] is “III (Group III more than five times the EC50 of THI0349)”.

Consider `COc1ccc(CN(Cc2ccc(OC)cc2)c2nc(COCCOCCOCc3csc(N(Cc4ccc(OC)cc4)Cc4ccc(OC)cc4)n3)cs2)cc1` [Compound 35, 4,4′-(2,2′-oxybis(ethane-2,1-diyl)bis(oxy))bis(methylene)bis(N,N-bis(4-methoxybenzyl)thiazol-2-amine)], for which the “LAD Raw Fluorescence Units against LFA-1; Dose 3 µM; Ratio of raw counts Compound/THI0349” value in assay [1] was 0.98. For the same compound, in assay [2], the “Group against VCAM” value is recorded as “II (Group II is more than twice that of THI0349 but less than five times THI0349's EC50)”.

On to `CCOC(=O)c1coc(N(Cc2cccs2)Cc2cccs2)n1` [Compound 13, ethyl 2-(bis(thiophen-2-ylmethyl)amino)oxazole-4-carboxylate], for which, in assay [1], the “LAD Raw Fluorescence Units against LFA-1; Dose 3 µM; Ratio of raw counts Compound/THI0349” value was determined as 0.1. Also, in assay [2], the “Group against VCAM” value is “I (Group I maintains at least the same potency or better up to more than twice that of the EC50 of THI0349 ran on the same plate)”.

As for `COc1cccc(CN(Cc2cccc(OC)c2)c2nc(COCCOc3ccc(N(C)C)cc3)cs2)c1` [Compound 51, 4-((2-(4-(dimethylamino)phenoxy)ethoxy)methyl)-N,N-bis(3-methoxybenzyl)thiazol-2-amine], in assay [1], the “LAD Raw Fluorescence Units against LFA-1; Dose 3 µM; Ratio of raw counts Compound/THI0349” value worked out at 1.3. Moreover, the “Group against VCAM” value in assay [2] is “III (Group III more than five times the EC50 of THI0349)”.

With `COc1cccc(CNC(=O)c2coc(N(Cc3cccc(OC)c3)Cc3cccc(OC)c3)n2)c1` [Compound 18, 2-(bis(3-methoxybenzyl)amino)-N-(3-methoxybenzyl)oxazole-4-carboxamide], the “LAD Raw Fluorescence Units against LFA-1; Dose 3 µM; Ratio of raw counts Compound/THI0349” value in assay [1] was 0.17. In addition, in assay [2], the “Group against VCAM” value is on record as “II (Group II is more than twice that of THI0349 but less than five times THI0349's EC50)”.

Take `COc1cccc(COCc2csc(N(Cc3cccc(OC)c3)Cc3cccc(OC)c3)n2)c1` [Compound 38, N,N-bis(3-methoxybenzyl)-4-((3-methoxybenzyloxy)methyl)thiazol-2-amine]: the “LAD Raw Fluorescence Units against LFA-1; Dose 3 µM; Ratio of raw counts Compound/THI0349” value in assay [1] is 0.16. In assay [2], the “Group against VCAM” value is given as “III (Group III more than five times the EC50 of THI0349)”.

Take `COc1cccc(CN(Cc2cccc(OC)c2)c2nc(COCCOCCOc3ccc(Cl)cc3)cs2)c1` [Compound 44, 4-((2-(2-(4-chlorophenoxy)ethoxy)ethoxy)methyl)-N,N-bis(3-methoxybenzyl)thiazol-2-amine]: in assay [1], the “LAD Raw Fluorescence Units against LFA-1; Dose 3 µM; Ratio of raw counts Compound/THI0349” value is reported as 0.77. Also, the “Group against VCAM” value in assay [2] is recorded as “I (Group I maintains at least the same potency or better up to more than twice that of the EC50 of THI0349 ran on the same plate)”.

With `COc1cccc(COCCOCCOCc2csc(N(Cc3cccc(OC)c3)Cc3cccc(OC)c3)n2)c1` [Compound 55, N,N-bis(3-methoxybenzyl)-4-((2-(2-((3-methoxybenzyl)oxy)ethoxy)ethoxy)methyl)thiazol-2-amine], the “LAD Raw Fluorescence Units against LFA-1; Dose 3 µM; Ratio of raw counts Compound/THI0349” value in assay [1] came out at 1.1. For the same compound, the “Group against VCAM” value in assay [2] was “I (Group I maintains at least the same potency or better up to more than twice that of the EC50 of THI0349 ran on the same plate)”.

For the compound `COc1cccc(CN(Cc2ccc3[nH]ncc3c2)c2nc(CN3CCOCC3)cs2)c1` [Compound 77, N-((1H-indazol-5-yl)methyl)-N-(3-methoxybenzyl)-4-(morpholinomethyl)thiazol-2-amine], the “LAD Raw Fluorescence Units against LFA-1; Dose 3 µM; Ratio of raw counts Compound/THI0349” value in assay [1] is reported as 0.34. For the same compound, in assay [2], the “Group against VCAM” value is given as “II (Group II is more than twice that of THI0349 but less than five times THI0349's EC50)”.

On to `COc1cccc(CN(Cc2cccc(OC)c2)c2nc(COCCOCCOc3ccc(N(C)C)cc3)cs2)c1` [Compound 46, 4-((2-(2-(4-(dimethylamino)phenoxy)ethoxy)ethoxy)methyl)-N,N-bis(3-methoxybenzyl)thiazol-2-amine], for which the “LAD Raw Fluorescence Units against LFA-1; Dose 3 µM; Ratio of raw counts Compound/THI0349” value in assay [1] is 1.5. Besides, the “Group against VCAM” value in assay [2] is reported as “I (Group I maintains at least the same potency or better up to more than twice that of the EC50 of THI0349 ran on the same plate)”.
